We go through three compounds from patent publication US20080176862A1, “New Compounds 617” (ASTRAZENECA AB, priority 2006, published 2008).

Structures can show the parent of a compound that is named as a salt.

This experiment deals with T1, human β-Secretase (soluble part, AA1-AA460; sBACE-Fc) (Homo sapiens, UniProt P56817).
T1 construct: The soluble part of the human β-Secretase (AA1-AA460) was cloned into the ASP2-Fc10-1-IRES-GFP-neoK mammalian expression vector; made in house
T1 sequence (P56817 22-460): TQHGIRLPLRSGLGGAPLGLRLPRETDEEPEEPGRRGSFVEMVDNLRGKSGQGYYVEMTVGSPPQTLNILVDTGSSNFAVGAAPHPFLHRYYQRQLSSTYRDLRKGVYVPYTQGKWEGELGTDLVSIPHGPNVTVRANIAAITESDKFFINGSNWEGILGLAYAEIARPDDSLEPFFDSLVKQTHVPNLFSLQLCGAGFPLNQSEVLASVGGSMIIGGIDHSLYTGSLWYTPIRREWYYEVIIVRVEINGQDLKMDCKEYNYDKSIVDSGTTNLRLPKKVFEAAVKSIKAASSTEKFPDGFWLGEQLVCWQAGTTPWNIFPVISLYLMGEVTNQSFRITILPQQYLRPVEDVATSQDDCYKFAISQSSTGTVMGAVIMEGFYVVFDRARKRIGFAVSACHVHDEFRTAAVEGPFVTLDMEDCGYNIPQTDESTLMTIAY
As to the kind of experiment: TR-FRET assay. It counts as biochemical. The settings on record: substrate (Europium)CEVNLDAEFK(Qsy7) 100 nM, pH 4.5, 15 min at RT; read-out: IC50 (nM) in TR-FRET assay. A general note: Time-resolved FRET reads energy transfer from a long-lived donor to a nearby acceptor.
In general, IC50 refers to the point on the concentration scale where inhibition reaches its midpoint. For the compound `Cc1cc(C2(c3ccc(F)c(-c4cc(Cl)cc(OS(C)(=O)=O)c4)c3)N=C(N)N(C)C2=O)ccn1` (stereo not drawn) [Example 307, 5′-(2-Amino-1-methyl-4-(2-methylpyridin-4-yl)-5-oxo-4,5-dihydro-1H-imidazol-4-yl)-5-chloro-2′-fluorobiphenyl-3-yl methanesulfonate hydrochloride], the half-inhibitory concentration (IC50) was 104 nM.

For `CN1C(=O)C(c2cccc(-c3cc(Cl)cc(OS(C)(=O)=O)c3)c2)(c2ccnc(Cl)c2)N=C1N` (stereo not drawn) [Example 311, 3′-(2-Amino-4-(2-chloropyridin-4-yl)-1-methyl-5-oxo-4,5-dihydro-1H-imidazol-4-yl)-5-chlorobiphenyl-3-yl methanesulfonate hydrochloride], the concentration for half-maximal inhibition (IC50) was 24 nM.

For the compound `COc1cc(OS(C)(=O)=O)cc(-c2cccc(C3(c4ccnc(Cl)c4)N=C(N)N(C)C3=O)c2)c1` (stereo not drawn) [Example 312, 2-Amino-5-(2-chloropyridin-4-yl)-5-[3-(3-methoxy-5-methylsulfonyloxy-phenyl)phenyl]-3-methyl-imidazol-4-one hydrochloride], the IC50 came to 26 nM.
